Laboratory results published in ChEMBL document CHEMBL1201862, “PubChem BioAssay data set” (2004).
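Where inhibition never reached the appropriate level, the endpoint shown equals the highest concentration tested. Otherwise, values were interpolated linearly from a five-concentration, 48-hour dose response in 96-well plates. Abbreviation: GI50, concentration required for 50% inhibition of growth.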 Active and inactive are the calls of the source. Cut-off read from the data, not from the text of the source: active = GI50 up to about 1.1 µM and inactive = higher.

How the values were obtained:
Experiment in all cases: inhibition of tumour cell growth, NCI panel, 48 h
BT-549 = tested on: BT-549
CAKI-1 = tested on: CAKI-1
COLO 205 = tested on: COLO 205
DU-145 = tested on: DU-145
EKVX = tested on: EKVX
HCC 2998 = tested on: HCC 2998
HCT-15 = tested on: HCT-15
HOP-92 = tested on: HOP-92
K562 = tested on: K562
KM12 = tested on: KM12
LOX IMVI = tested on: LOX IMVI
MDA-N = tested on: MDA-N
MOLT-4 = tested on: MOLT-4
NCI-H23 = tested on: NCI-H23
NCI-H460 = tested on: NCI-H460
OVCAR-3 = tested on: OVCAR-3
SF-268 = tested on: SF-268
SF-539 = tested on: SF-539
SR = tested on: SR
SW-620 = tested on: SW-620

Compound	GI50 (BT-549)	GI50 (CAKI-1)	GI50 (COLO 205)	GI50 (DU-145)	GI50 (EKVX)	GI50 (HCC 2998)	GI50 (HCT-15)	GI50 (HOP-92)	GI50 (K562)	GI50 (KM12)	GI50 (LOX IMVI)	GI50 (MDA-N)	GI50 (MOLT-4)	GI50 (NCI-H23)	GI50 (NCI-H460)	GI50 (OVCAR-3)	GI50 (SF-268)	GI50 (SF-539)	GI50 (SR)	GI50 (SW-620)
CN1Cc2c(ccc3c2OCO3)[C@@H]2[C@H](O)Cc3cc4c(cc3[C@@H]21)OCO4	2.55 µM (inactive)	4.89 µM (inactive)	2.2 µM (inactive)	4.4 µM (inactive)	4.51 µM (inactive)	2.11 µM (inactive)	2.02 µM	46.5 µM (inactive)	2.61 µM (inactive)	2.48 µM (inactive)	4.51 µM (inactive)	0.435 µM (active)	3.08 µM (inactive)	3.31 µM (inactive)	3.01 µM (inactive)	2.2 µM (inactive)	4.82 µM (inactive)	2.07 µM (inactive)	4.15 µM (inactive)	3.62 µM (inactive)
C=C1C(C2(C)C=CC(=O)OC3(C)COC(=O)CC32)C(OC=O)C(OC(=O)C(O)C(C)CC)C2(C)C(c3ccoc3)CC(OC(C)=O)C12O (stereo not given)	54.6 µM (inactive)	> 100 µM (inactive)	81.8 µM (inactive)	> 100 µM (inactive)	> 100 µM (inactive)	23.6 µM (inactive)	84.3 µM	> 100 µM (inactive)	> 100 µM (inactive)	34 µM (inactive)	25.3 µM (inactive)	37.6 µM (inactive)	> 100 µM (inactive)	> 100 µM (inactive)	42.1 µM (inactive)	> 100 µM (inactive)	> 100 µM (inactive)	> 100 µM (inactive)	38.9 µM (inactive)	> 100 µM (inactive)
O=C(CN(c1ccc(S(=O)(=O)O)cc1)c1ccc(S(=O)(=O)O)cc1)Nn1cnc2ccc(S(=O)(=O)N(c3ccc(S(=O)(=O)O)cc3)c3ccc(S(=O)(=O)O)cc3)cc2c1=O	> 100 µM (inactive)	> 100 µM (inactive)	> 100 µM (inactive)	> 100 µM (inactive)	> 100 µM (inactive)	> 100 µM (inactive)	> 100 µM	> 100 µM (inactive)	> 100 µM (inactive)	> 100 µM (inactive)	> 100 µM (inactive)	> 100 µM (inactive)	> 100 µM (inactive)	> 100 µM (inactive)	> 100 µM (inactive)	> 100 µM (inactive)	> 100 µM (inactive)	> 100 µM (inactive)	> 100 µM (inactive)	> 100 µM (inactive)
COC(=O)[C@H](CNC(=O)/C=C/c1ccc(OC(C)=O)c(OC(C)=O)c1)NC(=O)/C=C/c1ccc(OC(C)=O)c(OC(C)=O)c1	> 100 µM (inactive)	> 100 µM (inactive)	> 100 µM (inactive)	> 100 µM (inactive)	> 100 µM (inactive)	> 100 µM (inactive)	69.7 µM	> 100 µM (inactive)	> 100 µM (inactive)	> 100 µM (inactive)	> 100 µM (inactive)	> 100 µM (inactive)	> 100 µM (inactive)	> 100 µM (inactive)	> 100 µM (inactive)	> 100 µM (inactive)	> 10 µM (inactive)	> 100 µM (inactive)	> 100 µM (inactive)	> 100 µM (inactive)
COC(=O)C(CC(C)C)NC(=O)C(NC(=O)c1ccc(-c2ccc(Cl)cc2Cl)o1)C(C)C (stereo not given)	30 µM (inactive)	15.7 µM (inactive)	17.7 µM (inactive)	21.8 µM (inactive)	13.7 µM (inactive)	17.3 µM (inactive)	20.7 µM	14.2 µM (inactive)	16 µM (inactive)	20.8 µM (inactive)	15.7 µM (inactive)	20.2 µM (inactive)	12.9 µM (inactive)	22.5 µM (inactive)	14.9 µM (inactive)	16.3 µM (inactive)	22 µM (inactive)	29.2 µM (inactive)	19.2 µM (inactive)	28.8 µM (inactive)
COc1cc(Nc2nc3ccccc3nc2C(C)C)cc(OC)c1OC	> 100 µM (inactive)	> 100 µM (inactive)	> 100 µM (inactive)	> 100 µM (inactive)	42.7 µM (inactive)	> 100 µM (inactive)	90.4 µM	34 µM (inactive)	> 100 µM (inactive)	> 100 µM (inactive)	> 100 µM (inactive)	> 100 µM (inactive)	> 100 µM (inactive)	> 100 µM (inactive)	> 100 µM (inactive)	> 100 µM (inactive)	> 100 µM (inactive)	> 100 µM (inactive)	> 100 µM (inactive)	> 100 µM (inactive)
C=CC1ON(Cc2ccccc2)CCc2cc(OC)c(OC)cc21 (stereo not given)	28.1 µM (inactive)	70.5 µM (inactive)	41.6 µM (inactive)	> 100 µM (inactive)	63.4 µM (inactive)	35.5 µM (inactive)	48.2 µM	46.5 µM (inactive)	42 µM (inactive)	27 µM (inactive)	43.3 µM (inactive)	29 µM (inactive)	34.7 µM (inactive)	53.3 µM (inactive)	57 µM (inactive)	35.4 µM (inactive)	46.6 µM (inactive)	83.4 µM (inactive)	25.7 µM (inactive)	44.9 µM (inactive)
